Measurements taken from US20060020036A1, “Methods and compositions to promote bone homestasis” (priority 2004, published 2006).

What was measured:
[1] = tested on: osteogenic markers mRNA in MPCs infected with Ad-NR1H3; test: Osteogenic marker mRNA levels (rtRT-PCR) in MPCs infected with Ad-NR1H3 + T0901317; type: cell-based, human; details: Ad-NR1H3 + T0901317 (1 μM)
Method: Osteogenic differentiation of MPCs into osteoblasts is accompanied by the up-regulation of osteogenic proteins. […] The MPCs that are used in this study are profiled for the up-regulation of a limited set of osteogenic markers by BMP2. Markers that show differential expression for BMP2 are subsequently tested against mRNA derived from Ad-NR5A2 infected cells or derived from Ad-NR1H3+T0901317 treated cells. 100,000 MPCs are seeded in each well of a 6 well plate in 2 ml MPC medium, containing 10% FCS. The next day, after incubation at 37° C., 10% CO2 in a humidified incubator, cells are co-infected with AdC15-hCAR (final MOI of 750) and Ad-NR5A2, Ad-NR1H3+T0901317 (1 μM) or Ad-BMP2 (positive control) or Ad-eGFP or Ad-luciferase as negative controls (final MOIs of 1250 and 2500). Cells are incubated at 37° C., 10% CO2 in a humidified incubator for a further six days unless cells are already harvested for RNA isolation. Virus is removed and replaced by 2 ml fresh OS medium (proprietary medium containing 10% FCS). Over the next 3 weeks, medium is refreshed 3 times per 2 weeks. Every other time, medium is refreshed half or completely. Monolayers are harvested at several time points (see FIG. 15), total RNA is harvested and quantified and rtRT-PCRs are run as follows: monolayers are washed with ice cold PBS and harvested by adding SV RNA Lysis Buffer. Total RNA is prepared using the SV Total RNA isolation System (Promega, Cat # Z3100). RNA concentration is measured with the Ribogreen RNA Quantification kit (Molecular Probes, Leiden, The Netherlands, Cat No. R-11490). cDNA synthesis is performed using 20 ng total RNA per reaction using the TaqMan Universal PCR Master Mix, No AmpErase UNG, kit (Applied Biosystems, Warrington, UK, Part number 4324018). For each reverse transcriptase (RT) reaction a minus-RT reaction (negative control: no enzyme included in the reaction) is performed. The real-time reverse transcriptase (rtRT)-PCR reaction is performed with gene specific primers on both cDNA and minus-RT samples, using the SYBR Green PCR Master Mix (Applied Biosystems, Warrington, UK, Part number 4309155). Primers are quality controlled by performing PCR reactions on human genomic DNA and on plasmids containing the cDNA encoded by the gene studied if available. If the quality is unsatisfactory, additional primers are designed or validated primer sets are purchased (ABI). For the normalization of the expression levels a RT-PCR reaction is performed on human β-actin using the Human β-actin kit (Applied Biosystems, Warrington, UK, Part number 4310881E). The following program is run on a real-time PCR apparatus (ABI PRISM 7000 Sequence Detection System): 10 min at 25° C., 30 min at 48° C., 5 min at 95° C.
Expression levels for osteogenic marker genes are first normalized for beta-actin levels. The resulting data for Ad-BMP2, Ad-NR5A2 and Ad-NR1H3+T0901317 (1 μM) samples are then compared to those of Ad-eGFP or Ad-luciferase negative control samples, harvested at the same time points, for cells infected at the same MOI.

[2] = tested on: calvarial skull bones (hemicalvaria); test: Calvarial skull assay (bone organ culture); type: cell-based, CD1 mice
Method: CD1 pups are harvested around birth from CD1 female mice (received from Janvier (Le Genest St Isle, France) when they were 11 days pregnant). Pups are decapitated and the calvarial skull is dissected and split into 2 hemicalvaria. Hemicalvaria are blotted using sterile gauze, weighed and cultured in 24 well plates (MEMalpha or BGJb-Fitton-Jackson medium containing 50 μg/ml L-ascorbic acid (Sigma, A-4034), 5 mM β-glycerophosphate (Sigma, G-9891) and Penicillin-Streptomycin (Invitrogen Cat # 15140-122)). Small molecules (ligands, agonists, antagonists) are tested in at least three-fold at a minimum of 3 concentrations. Each small molecule is added to the medium on day 0 and added again when refreshing the medium (every 2-3 days). Three to 16 days after the start of the experiment, skulls are weighed again after blotting them dry using sterile gauze. The weight difference is calculated, expressed as percent weight change and the mean and standard deviations (SD) are calculated for the triplicate measurements. Data are analyzed using the Student's t-test.
The formation of new osteoid is analyzed histologically as follows: hemicalvaria are fixed in 10% buffered formalin for at least 2 days, decalcified in 10% EDTA overnight, processed through graded alcohols and embedded in paraffin wax. Three to 10 μm sections are prepared of the calvaria and stained with hematoxylin and eosin (H&E). Healthy cells, dead cells, old and new bone, and collagen are identified by their distinctive morphology and colouring observed after H&E staining. The surfaces taken by these are measured stereologically (μm^2 readout) and termed Osteoblast area, Debris area, Native and New bone area, Collagen area and Total area (sum of the previous 5 areas), respectively. In addition, the thickness (μm readout) is measured at 8 positions, evenly spaced over the section.
The histological readout of the calvarial skull assay is developed using known osteogenic agents. Hemicalvaria were treated with recombinant human parathyroid hormone (rhPTH).
T0901317 is added to the culture medium of the dissected hemicalvaria at the day of dissection at several doses (19.5, 78.1 and 313 nM), in fourfold. The concentration of the solvent (vehicle), DMSO, is fixed at a final concentration of 0.05%. The medium, containing T0901317 or vehicle control is refreshed every 2-3 days. Hemicalvaria are harvested 7 days after the initiation of the experiment and subjected to the histological analysis described above.

[3] = up-regulated if 4-fold higher than negative control, one or more time points
[4] = 19.5, 78.1 and 313 nM, 7 days, histology (H&E)

O=S(=O)(c1ccccc1)N(CC(F)(F)F)c1ccc(C(O)(C(F)(F)F)C(F)(F)F)cc1 [T0901317, N-(2,2,2-trifluoroethyl)-N-[4-[2,2,2-trifluoro-1-hydroxy-1-(trifluoromethyl)ethyl]phenyl]-benzenesulfonamide]
BAP mRNA expression [1, 3]: up-regulated expression | PTHR1 mRNA expression [1, 3]: up-regulated expression | RANKL mRNA expression [1, 3]: up-regulated expression | aromatase mRNA expression [1, 3]: up-regulated expression | osteopontin mRNA expression [1, 3]: up-regulated expression | mRNA levels of osteogenic markers ([1]; MPCs): up-regulate mRNA levels of osteogenic markers | dose-response activity towards areas of osteoblast ([2]; 19.5, 78.1 and 313 nM, 7 days): Dose-response activity of the compound is observed | dose-response activity towards thickness ([2]; 19.5, 78.1 and 313 nM, 7 days): Dose-response activity of the compound is observed | dose-response activity towards total area (sum of all areas measured) ([2]; 19.5, 78.1 and 313 nM, 7 days): Dose-response activity of the compound is observed | areas of collagen [2, 4]: Statistically significant increases | areas of new bone [2, 4]: Statistically significant increases | areas of osteoblast [2, 4]: Statistically significant increases | weight increases in calvarial skull explants ([2]; FIG. 18): Weight increases
